Measurements as given in patent publication US9254280B2, “Medical food for cognitive decline” (The Regents of the University of California, priority 2011, dated 2016).

What was measured:
3×AD Tg mice [1] = assay: Morris Water Maze, hidden platform, diet supplement study; format: in vivo
Text: (§1) Fisetin, a natural flavonoid enriched in strawberries, is neuroprotective and can improve cognitive function in various animal models including aging mice and beta amyloid plaque accumulating transgenic mice. We have tested 0.6% DHA alone, 500 ppm fisetin alone and DHA+fisetin in combination delivered as a food supplement (in chow) to older 3×AD Tg mice with combined amyloid and tau pathology. The study ran from ˜9 months to 13-14 months of age.

3×AD Tg mice [2] = assay: Probe test (platform removed, time in target quadrant); format: in vivo; settings: 60 seconds swim, dietary supplement
Text: as §1
FIG. 2. […] In this test the platform is removed, and the mice are allowed to swim for 60 seconds, while the time in the target quadrant is quantified.

O=c1c(O)c(-c2ccc(O)c(O)c2)oc2cc(O)ccc12 [fisetin, 2-(3,4-dihydroxyphenyl)-3,7-dihydroxy-4H-chromen-4-one]
Cognitive deficits (3×AD Tg mice [1]; 0.6% DHA, 500 ppm fisetin, alone or combined, in chow, older 3×AD Tg mice, ~9 to 13-14 months of age): not by DHA alone or fisetin alone | time (latency) to find a hidden platform with additional blocks of training (3×AD Tg mice [1]; 12-13 month old 3×AD Tg mice on control bad (high safflower oil) diet): no improvement | retention in the probe test (time in the target quadrant) (3×AD Tg mice [2]): also improved retention
